From patent US8338616B2, “Thiazoliums and their use for treating protein aging associated diseases” (Beijing Molecule Science And Technology Co., Ltd., priority 2008, dated 2012)
Values joined by “and” are separate entries in the source; they are usually repeats but may differ in a detail not shown here. Equal values may be shown once. Read-outs that look alike come from different tables or passages of the source.

Tests used:
[1] = tested on: IgG cross-linked on red blood cell surface; settings: RBC of diabetic rats
Experimental: In vitro administration: 0.1 mol/L isoosmia PBS (pH7.4) was used as negative control, and it was used as solvent to form drug solutions of the compounds to be tested with different concentrations. Per 900 μl drug solution or solvent control was added with 100 μl RBC, slightly shaken at 37° C. for 16-18 h; centrifuged at 1000 g and 4° C. for 3 min, supernatant was discarded, 0.1 mol/L is PBS (pH7.4) was used to wash plate for 4 times to remove residual compound;
centrifuged at 1000 g and 4° C. for 3 min, a lower layer of RBC was obtained, diluted by 1:100 and used for ELISA assay.
Immunoadsorption assay protocol for IgG content cross-linked on RBC surface: Multiscreen-HA 0.45 μm 96 well microtiter plate (Millipore) was blocked with Superblock (300 μl/well) at 37° C. for 1 h; then dried at a reduced pressure of 5 mmHg, the plate was washed with PBST for 3 time, with 0.1 MPBS (pH7.4) for 3 times, and the plate was shaken for 1 min per time; the RBC to be tested was added (50 μl/well), and PBS background control wells were set (OD0); dried by suction at a reduced pressure; washed with 0.1mol/L PBS (pH7.4) 150 μl for 4 time, the plate was shaken for 1 min per time. After dried by suction at a reduced pressure, 1:500 diluted goat anti-mouse IgG-HRP (50 μl/well) was added, stood at room temperature for 2 h, dried by suction; washed with 0.1 mol/L PBS (pH7.4) 150μl/well for 3 times, the plate was shaken for 1 min per time; dried by suction; o-phenylene diamine (OPD) substrate coloration solution (100 μl/well) was added, stood at room temperature for 30 min under protection from light, the reaction was terminated with 2 mol/L H2SO4 (100 μl/well); the reaction liquid was quickly drawn off (150 μl/well) and transferred to a normal 96 well enzyme labeled plate, and OD values were measured at 490 nm.
Corrected OD=average OD of RBC sample to be tested−average OD of PBS background wells without RBC, the breaking rate of the compounds is expressed as the percentages of OD490 nm decrease: (OD490 nm of PBS wells−OD490 nm of the compound to be tested)/OD490 nm of PBS wells×100%.

[2] = tested on: left ventricular cardiac muscle collagen of diabetic rats; settings: printed for the group of A 18 mg/kg (three values), diabetic model 42.8±4.3, sodium
Experimental: After the end of vascular compliance experiment, the heart of each of rats was taken, trimmed to remove heart auricle and right ventricle and remain only left ventricle, the trimmed tissue block was planced in a mortar, added with a small amount of liquid nitrogen and ground rapidly, added with a small amount of liquid nitrogen again when the tissue became soft and ground continuously to form a fine powder, and stored at −70° C. for standby use. About 100 mg of cardiac muscle was weighed, added with 1 ml 200 μg/ml pepsin (solvent: 0.5 mol/L acetic acid), shaken at 37 ° C. for 2 h and 24 h, respectively, centrifuged at 40000 g for 60 min, the supernatants of pepsin digestion solutions for 2 h and 24 h were separately taken, hydrolyzed and measured to determine hydroxyproline contents (the methods for hydrolysis and measurement are the same as aforementioned). The dissolubility of cardiac muscle collagen is calculated by the following formula: […]

[3] = tested on: diabetic-hypertension rats
Experimental: The experiment about influence of AGEs breaker on hypotensive effect of nifedipine was performed on a diabetic-hypertension rat model. […] During the experiment, the animals took food freely, and were not interfered with any hypoglycemic drugs or hypotensive drugs.
The compound A was dissolved in distilled water, ready for use. Rats were randomly grouped as diabetic-hypertension control (DM-HTN) group and A (18 mg/kg) group. The drug was introgastrically administered once per day, and an equal amount of distilled water was administered in the diabetic-hypertension control group, for consecutive 4 weeks. After the end of experiment, blood samples were taken, thoracic aorta, liver, kidney were stored at −70° C. for standby use, and used for assays for tissue biochemical indicators and gene expression. Another part of kidney was fixed with 4% paraformaldehyde and used for pathological staining.
Nifedipine powder was formulated with DMSO to form a 5 mg/ml solution, then diluted with 15% ethanol-10% DMSO-25% PEG400 to form a 500 μg/ml solution, and diluted again to form 125 μg/ml, 62.5 μg/ml, 31.25 μg/ml, 15.62 μg/ml, 7.8 μg/ml solutions.
Rats were anesthetized with urethane-chloralose mixture by i.p., subjected to heparin anticoagulation, right common carotid artery cannula, communicated with
Biopac physiological recorder via pressure transducers. Through a right femoral vein remaining needle, nifedipine solutions were injected slowly by 5 batches in an order of concentrations from low to high, and arterial systolic pressure, diastolic pressure, pulse pressure and heart rate change were recorded continuously.

[4] = tested on: AGE-BSA-collagen cross-links; settings: n = 5
Experimental: AGE cross-link structures were prepared in vitro by cross-linking AGE-BSA to rat tail collagen coated on a 96 well ELISA plate. A ELISA method was used to evaluate the breaking effect of the compounds on AGE cross-links.
Normal Wister rats (body weight of 200±20 g) were sacrificed acutely, the tails were excised, and tail collagen was prepared at a temperature of 4° C. as follows. Tail tendon collagen fibrils were taken out, washed with physiological saline, peeled off non-collagen fibril tissues, rinsed with double-distilled water 3 times, cut into pieces, and immersed in 0.1% glacial acetic acid at 4° C. for one week during which it was shaken frequently. […] After dilution, the protein content was measured. […]
A solution containing 50 mg/ml of bovine serum albumin BSA (V) (Roch) and 0.5M of glucose in 0.2M PBS (pH 7.4) was incubated in dark at 37° C. under sterile condition for 3-4 months, to thereby form glycosylated BSA, i.e. BSA-AGE. […] Fluorescence scanning (Exi/Em (395/460 nm)) and SDS-PAGE were used to check the formation of BSA-AGE, and protein concentration was determined by the Lowery method.
The tail collagen coated 96 well ELISA plates were full-well treated with PBS (pH 7.4) for 1 hour to neutralize the acidic collagen. […] Within 10 minutes after the reaction, optical density (OD) was read at 450 nm on the BOBRAD Model 550 plate reader with the blank wells of the plates was set to 0. […]

[5] = diabetic-hypertension rats, A 18 mg/kg intragastric once per day, 4 weeks

Compound: Cc1csc[n+]1CC(=O)O.[Na+] [A, 3-carboxymethyl-4-methyl-thiazolium bromide sodium]
- Breaking rate (OD decrease, %) ([1]; 1 μM): 25.6 ± 2.1%
- Breaking rate (OD decrease, %) ([1]; 10 μM): 26.9 ± 3.0%
- Breaking rate (OD decrease, %) ([1]; 30 μM): 21.6 ± 5.0%
- Breaking rate (OD decrease, %) ([1]; 100 μM): 26.0 ± 2.7%
- cardiac muscle collagen dissolubility [2]: 54.7±11.0% and 53.7±11.9% and 57.7±7.3%
- DBP [3, 5]: 144.2 ± 11.1 mmHg
- HR [3, 5]: 408.7 ± 35.7 beat/min
- MBP [3, 5]: 153.5 ± 13.7 mmHg
- PP [3, 5]: 22.9 ± 3.8 mmHg
- SBP [3, 5]: 166.6 ± 12.4 mmHg
- change in heart rate and blood pressure ([3]; diabetic-hypertension rats, compound A for 4 weeks): no significant change
- hypotensive extent of nifedipine ([3]; fourth dosage of nifedipine (62.5 μg/ml) i.v., after 4 weeks of A 18 mg/kg, model group 18.92±10.54): 29.99±9.06 mmHg
- hypotensive effect of nifedipine vs diabetic-hypertension model group ([3]; from second dosage of nifedipine (15.62 μg/ml), after 4 weeks of A 18 mg/kg): increased hypotensive effect
- hypotensive extent of nifedipine ([3]; third dosage of nifedipine (31.25 μg/ml) i.v., after 4 weeks of A 18 mg/kg, model group 9.35±6.46): 19.49±13.29 mmHg
- Breaking rate (decrease % in OD) ([4]; 0.01 umol/L): 8.1 ± 4.76, n =5%
- Breaking rate (decrease % in OD) ([4]; 0.1 umol/L): 11.3 ± 7.70, n = 5%
